{
  "source": "patent US20170035783A1",
  "about": "“COMPOSITION FOR THE PREVENTION AND THERAPY OF TUMOR DISEASES” (SANOXSYS GMBH, priority 2014, published 2017)",
  "origin": "cited, not measured here",
  "test_system": "breast cancer risk",
  "details": "subcutaneous pellet, 2008-2010",
  "data": [
    {"smiles": "C[C@]12CC[C@H]3[C@@H](CCC4=CC(=O)CC[C@@]43C)[C@@H]1CC[C@@H]2O", "note": "[testosterone alone, testosterone]", "values": [
      {"measurement": "breast cancer risk in pre- and postmenopausal women", "result": "reduce the breast cancer risk"}
    ]}
  ]
}
